{
  "source": "patent US6855812B2",
  "about": "“P-glycoproteins and uses thereof” (Becton, Dickinson and Company, priority 2001, dated 2005)",
  "tested_on": "rhesus monkey PGP",
  "test": "Polarization of vinblastine transport in Transwells, rhesus monkey PGP transfected LLC-PK1 cell monolayers",
  "conditions": "PGP transfected LLC-PK1 cells, compared with control cells; vinblastine 0.1 μM",
  "description": "Rhesus monkey PGP cDNA (SEQ ID NO:1) is introduced into a clonal population of LLC-PK1 cells in a vector that confers resistance to hygromycin B. LLC-PK1 cells are obtained from the American Type Culture Collections and are propagated in Medium 199 supplemented to 7% with fetal bovine serum. LLC-PK1 cells are recloned prior to transfection in order to assure homogeneity of the cell population. Briefly, rhesus monkey PGP cDNA is incorporated into the p222CMV vector. […] The PGP cDNA is under the control of the cytomegalovirus (CMV) immediate early promoter. The vector confers resistance to hygromycin B. Cells (in 0.4 mL) and DNA (10 to 20 μg) were transfected by electroporation using a BTX Electro cell manipulator model 600 using a 2 mm gap cell, 100V, 2500 μF capacitance and 72 ohm resistance. […] Expression of PGP is measured by the polarization of vinblastine (0.1 μM) transport in Transwells™.\nLLC-PK1 cell based transport studies are conducted in 24 well Transwells™ (Corning Costar, Catalog number 3415). […] Transport is measured under sink conditions in both the apical to basolateral (A to B) and basolateral to apical (B to A) directions. […] Quantitation of the amount of compound transported is by liquid scintillation counting (vinblastine) or HPLC with UV or mass spectrometric detection.\nFunctional expression of rhesus monkey PGP is measured by the polarization of transport of vinblastine.",
  "data": [
    {"molecule": "CC[C@]1(O)C[C@@H]2CN(CCc3c([nH]c4ccccc34)[C@@](C(=O)OC)(c3cc4c(cc3OC)N(C)[C@H]3[C@@](O)(C(=O)OC)[C@H](OC(C)=O)[C@]5(CC)C=CCN6CC[C@]43[C@@H]65)C2)C1", "note": "[vinblastine]", "values": [
      {"measurement": "B to A/A to B ratio (polarization of transport)", "result": "much higher ratio"}
    ]}
  ]
}
